Common to all, as to format: cell-based, human
One assay deals with MES SA. Put plainly: Cytotoxicity assay (72 hour killing assay, CellTiter-Glo), MES SA. Conditions: read-out: Cancer cell lines IC50 (nM) MES SA. On the procedure: (§1) Cells were cultured in a T75 flask to ˜50-80% confluency and harvested with trypsin into a single cell suspension. Five hundred (500) cells per well were seeded in tissue culture plates in 50 μL/well culture media and incubated at 37° C. for 18-24 h. Compounds were diluted as 400× final desired concentrations in DMSO. Serial dilutions in DMSO were then diluted in culture media for a final DMSO concentration of 0.25% and 50 μL/well of the final dilution was added to the cells (Vf=100 μL). Upon plating and treatment, cells were returned to the incubator for an additional 72 hours. CellTiter-Glo reagent was prepared per manufacturer's instructions and added at 100 μL/well to the cultures. CellTiter-Glo allows for relative enumeration of metabolically active cells by quantifying intracellular ATP concentrations. After 5 minutes of incubation with CellTiter-Glo at ambient room temperature, 125 μL/well of the Cell Titer glo/cell lysate solution was transferred into black assay plates, which were then read in a luminometer within 30 minutes.
(§2) MES SA and MES SA/Dx cells are uterine sarcoma. MES SA Dx cell line was generated from MES SA to achieve upregulation of MDR1.
A general note: Cellular ATP, detected with luciferase, serves as a proxy for viable cell number.

A further assay deals with MES SA DX. Put plainly: Cytotoxicity assay (72 hour killing assay, CellTiter-Glo), MES SA DX. Conditions: read-out: Cancer cell lines IC50 (nM) MES SA DX. As for the experimental part:
as §1, §2

Another assay deals with HEK 293T. Put plainly: Cytotoxicity assay (72 hour killing assay, CellTiter-Glo), HEK 293T. Particulars: read-out: Cancer cell lines IC50 (nM) HEK 293T. As for the experimental part:
as §1
293T cells are human embryonic kidney cell line.

The structures appear in SMILES notation. Where two headings read alike, the source gives them in different places. Non-standard residues stand in square brackets, D forms with d. Residues, ends and D or L forms follow the SMILES beside them. *: point of attachment. Dolaproine = CO[C@@H]([C@@H]1CCCN1)[C@@H](C)C(=O)O; Dil = CC[C@H](C)[C@H](NC)[C@@H](CC(=O)O)OC; X1 = C[C@@H](N*)[C@@H](O)c1ccccc1; NMeV = CN[C@H](C(=O)O)C(C)C Where only a bound is given, the exact number is not on record here.

Consider 4 compounds from patent US11584754B2, “Derivatives of thailanstatin A, methods of treatment and methods of synthesis thereof” (WILLIAM MARSH RICE UNIVERSITY, priority 2016, dated 2023).

For the compound `COC(=O)C[C@@H]1C[C@@]2(CO2)[C@H](OC(C)=O)[C@@H](/C=C/C(C)=C/C[C@@H]2O[C@H](C)[C@H](NC(=O)/C=C\[C@H](C)OC(C)=O)C[C@@H]2C)O1` [Compound 45, Methyl [(3R,5S,7R,8R)-8-acetoxy-7-{(1E,3E)-5-[(2S,3S,5R,6R)-5-{[(2Z,4S)-4-acetoxypent-2-enoyl]-amino}-3,6-dimethyltetrahydro-2H-pyran-2-yl]-3-methylpenta-1,3-dien-1-yl}-1,6-dioxaspiro[2.5]-oct-5-yl]acetate], the IC50 in the assay on MES SA (Homo sapiens, MES-SA, 72 h) amounted to 6.82 nM; with MES SA DX (Homo sapiens, MES-SA, 72 h) it was 6.73 nM; in the assay on HEK 293T (Homo sapiens, HEK-293T, 72 h), 0.58 nM.

In the case of `COC(=O)C[C@@H]1C[C@@]2(CO2)[C@H](O)[C@@H](/C=C/C(C)=C\C[C@@H]2O[C@H](C)[C@H](NC(=O)/C=C\[C@H](C)OC(C)=O)C=C2C)O1` [Compound 46], the IC50 in the assay with MES SA (Homo sapiens, MES-SA, 72 h) was over 1000 nM; with MES SA DX (Homo sapiens, MES-SA, 72 h), over 1000 nM; with HEK 293T (Homo sapiens, HEK-293T, 72 h) it was over 1000 nM.

For the compound `COC(=O)C[C@@H]1C[C@@]2(CO2)[C@H](O)[C@@H](/C=C/C(C)=C\C[C@@H]2O[C@H](C)[C@H](NC(=O)/C=C\[C@H](C)OC(C)=O)C[C@H]2C)O1` [Compound 47, Methyl [(3R,5S,7R,8R)-7-{(1E,3Z)-5-[(2S,3R,5R,6R)-5-{[(2Z,4S)-4-acetoxypent-2-enoyl]amino}-3,6-dimethyltetrahydro-2H-pyran-2-yl]-3-methylpenta-1,3-dien-1-yl}-8-hydroxy-1,6-dioxaspiro[2.5]-oct-5-yl]acetate], the IC50 in the assay on MES SA (Homo sapiens, MES-SA, 72 h) was over 1000 nM; in the assay with MES SA DX (Homo sapiens, MES-SA, 72 h), over 1000 nM; in the assay with HEK 293T (Homo sapiens, HEK-293T, 72 h), over 1000 nM.

For the compound `CC[C@H](C)[C@@H]([C@@H](CC(=O)N1CCC[C@H]1[C@H](OC)[C@@H](C)C(=O)N[C@H](C)[C@@H](O)c1ccccc1)OC)N(C)C(=O)[C@@H](NC(=O)[C@@H](NC)C(C)C)C(C)C` [MMAE, reference compound] (H-[NMeV]V[Dil][Dolaproine]-X1), the IC50 in the assay with MES SA (50% inhibitory concentration against cell growth, human uterine sarcoma cell line, 72 hours) stood at 0.096 nM; in the assay with MES SA DX (50% inhibitory concentration against cell growth, MES SA cell line with marked multidrug resistance, 72 hours), 88.2 nM; with HEK 293T (50% inhibitory concentration against cell growth, human embryonic kidney cancer cell line, 72 hours), 0.068 nM.

For orientation: IC50 means the concentration that gives 50% inhibition.
